Measured values: patent US20160229835A1, “NOVEL PYRIDYLOXYACETYL TETRAHYDROISOQUINOLINE COMPOUNDS USEFUL AS NAMPT INHIBITORS” (ELI LILLY AND COMPANY, priority 2013, published 2016)
Read-outs that look alike come from different tables or passages of the source.

Columns and labels:
Type in all cases: cell-based
RL95-2 = experiment: Cell Proliferation Assay ±NA, RL95-2; details: Homo sapiens, RL95-2, endometrium, treatment time 72 hr
Description: (§1) The purpose of this assay is to measure the ability of a compound to inhibit proliferation of endometrium, kidney, adrenal gland, and autonomic ganglia cancer cell lines dependent on the NAMPT-mediated NAD^+ formation in the presence or absence of NA (10 μM) in vitro. One day before the planned initiation of compound treatment portion of the assay, one vial of assay ready frozen cells is thawed, and the cells are grown overnight in the media as shown in Table 3 under 5% CO2 at 37° C. Then, the cell layer is briefly rinsed with 0.25% (w/v) Trypsin-0.038% (w/v) EDTA solution followed with the addition of 3.0 ml of Trypsin-EDTA solution. Once the cell layer is dispersed, 8.0 ml of complete growth medium (Table 3) is added and cells are aspirated by gently pipetting. The cell suspension is transferred to a centrifuge tube and centrifuged at 800-1000 rpm for 3-5 minutes. The supernatant is discarded using a vacuum pump. The cell pellet is suspended in a complete medium by gently pipetting. The cell numbers are counted and adjusted to the appropriate density (Table 3). […] The bottom of each plate is pasted with a white back seal and luminescence is recorded using a Flexstation 3 with the following settings: Luminescence and integration time of 500 ms.

U031 = experiment: Cell Proliferation Assay ±NA, U031; details: U031, kidney, treatment time 72 hr
Description: as §1

SW13 = experiment: Cell Proliferation Assay ±NA, SW13; details: Homo sapiens, SW13, adrenal gland, treatment time 72 hr
Description: as §1

TK10 = experiment: Cell Proliferation Assay ±NA, TK10; details: Homo sapiens, TK-10, TK10, kidney, treatment time 72 hr
Description: as §1

CHP-212 = experiment: Cell Proliferation Assay ±NA, CHP-212; details: Homo sapiens, CHP-212, autonomic ganglia, treatment time 72 hr
Description: as §1

SNG-M = experiment: Cell Proliferation Assay ±NA, SNG-M; details: endometrium, treatment time 72 hr
Description: as §1

GOTO = experiment: Cell Proliferation Assay ±NA, GOTO; details: autonomic ganglia, treatment time 96 hr
Description: as §1

KLE = experiment: Cell Proliferation Assay ±NA, KLE; details: Homo sapiens, endometrium, treatment time 72 hr
Description: as §1

OS-RC-2 = experiment: Cell Proliferation Assay ±NA, OS-RC-2; details: Homo sapiens, OS-RC-2, kidney, treatment time 72 hr
Description: as §1

COLO-684 = experiment: Cell Proliferation Assay ±NA, COLO-684; details: Homo sapiens, COLO-684, endometrium, treatment time 72 hr
Description: as §1

NCI-H295 = experiment: Cell Proliferation Assay ±NA, NCI-H295; details: NCI-H295, adrenal gland, treatment time 144 hr
Description: as §1

HEC-1-A = experiment: Cell Proliferation Assay ±NA, HEC-1-A; details: Homo sapiens, endometrium, treatment time 72 hr, tested in a growth medium containing nicotinic acid
Description: as §1

A498 = experiment: Cell Proliferation Assay ±NA, A498; details: Homo sapiens, A498, kidney, treatment time 48 hr
Description: as §1

Caki-1 = experiment: Cell Proliferation Assay ±NA, Caki-1; details: Homo sapiens, Caki-1, kidney, treatment time 72 hr
Description: as §1

SN12C = experiment: Cell Proliferation Assay ±NA, SN12C; details: Homo sapiens, kidney, treatment time 72 hr
Description: as §1

[1] = NA 0.0 μM, read-out: IC50 (μM) NA (0.0 μM)
[2] = NA 10 μM, read-out: IC50 (μM) NA (10 μM)

## CC(C)(O)CS(=O)(=O)Nc1ccc2c(c1)CCN(C(=O)COc1cccnc1)C2 [Example 1, 2-Hydroxy-2-methyl-N-[2-[2-(3-pyridyloxy)acetyl]-3,4-dihydro-1H-isoquinolin-6-yl]propane-1-sulfonamide]
RL95-2; [1]
  IC50: 0.02 µM
RL95-2; [2]
  IC50: 0.02 µM
U031; [1]
  IC50: 0.06 µM
U031; [2]
  IC50: 0.06 µM
SW13; [1]
  IC50: 0.05 µM
SW13; [2]
  IC50: 0.02 µM
TK10; [1]
  IC50: 0.22 µM
TK10; [2]
  IC50: 0.21 µM
CHP-212; [1]
  IC50: 0.07 µM
CHP-212; [2]
  IC50: 0.07 µM
SNG-M; [1]
  IC50: 0.02 µM
SNG-M; [2]
  IC50: 0.02 µM
GOTO; [1]
  IC50: 0.02 µM
GOTO; [2]
  IC50: 0.02 µM
KLE; [1]
  IC50: 0.04 µM
KLE; [2]
  IC50: > 2 µM
OS-RC-2; [1]
  IC50: > 2 µM
OS-RC-2; [2]
  IC50: > 2 µM
COLO-684; [1]
  IC50: 0.03 µM
COLO-684; [2]
  IC50: > 2 µM
NCI-H295; [1]
  IC50: 0.1 µM
NCI-H295; [2]
  IC50: 0.06 µM
HEC-1-A; [1]
  IC50: > 2 µM
HEC-1-A; [2]
  IC50: > 2 µM
A498; [1]
  IC50: 1.84 µM
A498; [2]
  IC50: > 2 µM
Caki-1; [1]
  IC50: 0.13 µM
Caki-1; [2]
  IC50: 0.11 µM
SN12C; [1]
  IC50: 0.06 µM
SN12C; [2]
  IC50: 0.05 µM
